Entries after “also recorded” stand apart in the source; their conditions may differ.
Assays:
Htr2a [1] = target: T1, Htr2a (Mus musculus, UniProt P35363); test: Oil Red O staining of 3T3-L1 adipocytes; format: cell-based, murine; details: treatment during differentiation, absorbance at 520 nm
Description: Murine 3T3-L1 cells (American Type Culture Collection) were cultured in DMEM supplemented with 10% fetal calf serum and 100 μg/mL P/S in a humidified atmosphere of 5% CO2 at 37° C. Two days after reaching confluence, the cells were induced to differentiate using medium supplemented with 0.5 mM IBMX, 1 mg/mL insulin and 1 μM dexamethasone (day 0). After two days, the medium was replaced with DMEM supplemented with 1 mg/mL insulin in 10% FBS and P/S (day 2), and it was changed every two days from days 4 to 8. After full differentiation (day 8), 3T3-L1 adipocytes were fixed with 3.7% (w/v) formaldehyde in PBS for 15 min at room temperature and then washed three times with PBS. Then, the cells were stained with filtered Oil Red 0 solution (1.5 mg/mL 60% (v/v) isopropanol) for 30 min and then rinsed twice with distilled water. To quantify the amount of Oil Red 0 staining, the cells were eluted with 100% isopropranol for 10 min, and the absorbance densities of the extracts were measured at 520 nm using a VersaMax microplate reader (Molecular Devices, Sunnyvale, Calif., USA).

Htr3 [2] = target: T2, Htr3 (Mus musculus, UniProt P23979); test: cAMP assay (competitive ELISA) in immortalized brown adipocytes; format: cell-based
T2 construct: we explored the direct actions of Htr3 on BAT using immortalized brown adipocytes (IBAs); endogenous in cells; host or cells: differentiated immortalized brown adipocytes (IBAs)
T2 sequence (P23979 24-489): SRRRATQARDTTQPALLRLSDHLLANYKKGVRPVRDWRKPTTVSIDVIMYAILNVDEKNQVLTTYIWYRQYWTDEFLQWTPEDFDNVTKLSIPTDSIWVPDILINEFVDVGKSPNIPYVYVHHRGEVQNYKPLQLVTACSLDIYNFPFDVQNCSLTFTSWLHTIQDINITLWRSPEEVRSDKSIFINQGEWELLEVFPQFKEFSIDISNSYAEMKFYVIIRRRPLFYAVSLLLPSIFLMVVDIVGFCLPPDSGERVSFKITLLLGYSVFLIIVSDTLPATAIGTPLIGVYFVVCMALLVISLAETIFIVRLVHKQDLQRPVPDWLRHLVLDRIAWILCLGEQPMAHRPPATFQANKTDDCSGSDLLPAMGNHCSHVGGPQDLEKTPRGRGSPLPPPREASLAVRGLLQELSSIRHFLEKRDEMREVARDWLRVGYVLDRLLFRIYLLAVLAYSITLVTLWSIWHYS
T2 sequence (Q9JHJ5 22-437 partner): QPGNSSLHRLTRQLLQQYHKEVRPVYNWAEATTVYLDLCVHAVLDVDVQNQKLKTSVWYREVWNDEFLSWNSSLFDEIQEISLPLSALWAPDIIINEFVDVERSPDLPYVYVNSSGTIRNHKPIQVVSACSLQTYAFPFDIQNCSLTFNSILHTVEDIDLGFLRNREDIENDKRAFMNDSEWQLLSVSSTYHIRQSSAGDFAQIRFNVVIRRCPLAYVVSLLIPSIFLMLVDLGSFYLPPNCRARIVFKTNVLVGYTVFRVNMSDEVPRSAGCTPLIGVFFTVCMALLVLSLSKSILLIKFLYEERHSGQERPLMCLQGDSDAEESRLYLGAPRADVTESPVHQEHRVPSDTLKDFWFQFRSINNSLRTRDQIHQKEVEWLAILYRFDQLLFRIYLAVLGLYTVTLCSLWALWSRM
Description: (§1) IBAs were cultured in DMEM supplemented with 10% FBS and P/S in a humidified atmosphere of 5% CO2 at 37° C.^32. After reaching 95% confluence, the cells were induced to differentiate using DMEM with 10% FBS, 0.5 μg/mL insulin, 1 nM T3, 0.125 mM indomethacin, 2 μg/mL dexamethasone, 0.5 μM IBMX and P/S (day 0). After two days, the medium was replaced with DMEM supplemented with 10% FBS, 0.5 μg/mL insulin, 1 nM T3 and P/S (day 2), and it was changed every two days from days 4 to 8. We confirmed that these cell lines are free from Mycoplasma infection.
Differentiated IBAs were treated with 1 uM ondansetron or 100 nM m-CPBG or 1 uM CL-316243 for 15 min. 1 uM […] was used as a positive control. The cAMP competitive ELISA (Promega) was performed according to the manufacturer's instruction. Briefly, cAMP was extracted by adding 0.1 M HCl with 0.5% triton X-100 to the cells. After centrifugation at 600 g for 10 min, the supernatant was used for the determination of cAMP levels by competitive cAMP ELISA.

Htr3 [3] = target: T2, Htr3; test: Real-time PCR of thermogenic genes in IBAs; format: cell-based; details: 2 h after ondansetron treatment
Description: as §1
(§2) Total RNA was extracted from the mouse tissues or cell lines using TRIzol reagent (Invitrogen) according to the manufacturer's protocol. After TURBO DNase (Invitrogen) treatment, 2 μg of total RNA was used to generate complementary DNA with Superscript III reverse transcriptase (Invitrogen). To analyze gene expression, real-time PCR was performed with a ViiA 7 Real-Time PCR system (Applied Biosystems) and the Power SYBR Green PCR master mix (Applied Biosystems). Relative quantification was based on the ddCt method, and ActB was used as an endogenous control (internal control).

Htr3 [4] = target: T2, Htr3; test: Western blot for phosphorylation of PKA pathway components in IBAs; format: cell-based; details: IBAs pretreated with ondansetron, in the presence of β3-adrenergic receptor agonist
Description: as §1
Whole-cell lysates were extracted by incubating cells in RIPA buffer (25 mM Tris-HCl pH 7.6, 150 mM NaCl, 1% NP-40, 1% sodium deoxycholate, 0.1% SDS) plus protease inhibitors (Roche). Supernatant was collected following a brief centrifuge, and protein concentrations in the supernatant were determined using the BCA Protein Assay Kit (Thermo Scientific, Rockford, Ill., USA). The cell lysates were then mixed with equal volumes of 2× Laemmli buffer (4% SDS, 20% glycerol, 10% 2-mercaptoethanol, 0.01% bromophenol blue, and 120 mM Tris-HCl, pH 6.8) and boiled for 5 min at 95° C. Then, the protein samples were separated by SDS-PAGE and transferred to a PVDF membrane (Millipore). […]

Htr3 [5] = target: T2, Htr3; test: OCR assay (Seahorse XF24) in IBAs; format: cell-based; details: fully differentiated IBAs pretreated 30 min, then β3 agonist CL-316243
Description: IBAs were cultured in DMEM supplemented with 10% FBS and P/S in a humidified atmosphere of 5% CO2 at 37° C.^32. After reaching 95% confluence, the cells were induced to differentiate using DMEM with 10% FBS, 0.5 μg/mL insulin, 1 nM T3, 0.125 mM indomethacin, 2 μg/mL dexamethasone, 0.5 μM IBMX and P/S (day 0). After two days, the medium was replaced with DMEM supplemented with 10% FBS, 0.5 μg/mL insulin, 1 nM T3 and P/S (day 2), and it was changed every two days from days 4 to 8. […] The OCRs of the cells were measured using a Seahorse XF analyzer (Seahorse Bioscience, Billerica, Mass., USA). After seeding IBAs on an XF-24 plate, the cells were incubated and differentiated using the protocol described above. Fully differentiated IBAs were pre-treated with PBS and ondansetron for 30 min. Then, the IBAs were treated with the β3 agonist (CL-316243) and the mitochondrial inhibitors oligomycin and rotenone/antimycin. The OCRs were calculated and recorded by a sensor cartridge and the Seahorse XF-24 software.

[6] = tested on: SV cells from Tph1 FKO mice; test: Ex vivo differentiation of SVF from BAT of Tph1 FKO mice, Ucp1 mRNA; format: cell-based; details: after 8 days of differentiation
Description: The stromal vascular fraction of epididymal, inguinal and BAT from 6- to 7-week-old mice was separated by collagenase digestion. Briefly, the adipose tissues were dissected, minced and digested with 0.2% collagenase A (Roche) in Hank's balanced salts solution (Sigma) for 45 min at 37° C. with constant shaking. Mature adipocytes and connective tissues were separated from the cell pellet by centrifugation at 800×g for 10 min at 4° C. The cell pellet was then suspended with RBC lysis buffer (Sigma) and filtered through a 40-μm mesh filter (BD bioscience). The pelleted stromal vascular cells (SVCs) were re-suspended in DMEM containing 10% FBS and seeded in 6-well plates for adipogenic differentiation.
as §2

Htr2a [7] = target: T1, Htr2a; test: Glycerol release assay (lipolysis) in 3T3-L1 mature adipocytes; format: cell-based, murine; details: 24 h
Description: (§3) Murine 3T3-L1 cells (American Type Culture Collection) were cultured in DMEM supplemented with 10% fetal calf serum and 100 μg/mL P/S in a humidified atmosphere of 5% CO2 at 37° C. Two days after reaching confluence, the cells were induced to differentiate using medium supplemented with 0.5 mM IBMX, […] and 1 μM dexamethasone (day 0). After two days, the medium was replaced with DMEM supplemented with […] in 10% FBS and P/S (day 2), and it was changed every two days from days 4 to 8.
Lipolysis was measured as the rate of glycerol release using a free glycerol reagent (Sigma) following the manufacturer's protocol. Briefly, fully differentiated 3T3-L1 adipocytes in a 24-well plate were incubated with 5-HT or DOI in Krebs Ringer phosphate buffer (136 mM NaCl, 4.7 mM KCl, 10 mM NaPO4, 0.9 mM MgSO4, and 0.9 mM CaCl2) containing 4% fatty acid-free bovine serum albumin (Sigma) for 24 h. Isoproterenol was used as a positive control. After incubation, 10 μL of the cell culture supernatant was mixed with 0.8 mL of the free glycerol reagent, and the mixture was then incubated at 37° C. for 5 min. The absorbance of the sample was determined at 540 nm using a spectrophotometer (DU730 Life Science UV/Vis, Beckman Coulter, Indianapolis, Ind., USA). The amount of released glycerol was expressed relative to the cellular protein content.

Htr2a [8] = target: T1, Htr2a; test: Real-time PCR of lipogenic genes in 3T3-L1 mature adipocytes; format: cell-based, murine
Description: as §3, §2

T1 sequence (P35363 whole entry): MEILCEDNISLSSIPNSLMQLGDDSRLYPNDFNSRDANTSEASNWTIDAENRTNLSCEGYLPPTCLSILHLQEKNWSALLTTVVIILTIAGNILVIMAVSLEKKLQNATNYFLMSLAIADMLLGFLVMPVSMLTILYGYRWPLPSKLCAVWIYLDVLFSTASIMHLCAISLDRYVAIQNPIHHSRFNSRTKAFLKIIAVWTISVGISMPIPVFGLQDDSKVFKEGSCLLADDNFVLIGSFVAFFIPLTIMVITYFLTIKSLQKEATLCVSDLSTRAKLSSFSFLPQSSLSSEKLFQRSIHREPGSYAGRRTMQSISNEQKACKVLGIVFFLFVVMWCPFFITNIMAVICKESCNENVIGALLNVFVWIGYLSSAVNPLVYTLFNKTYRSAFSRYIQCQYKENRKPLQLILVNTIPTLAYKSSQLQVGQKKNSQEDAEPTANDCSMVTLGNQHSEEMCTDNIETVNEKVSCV

Compound: O=C(c1ccc(F)cc1)C1CCN(CCn2c(=O)[nH]c3ccccc3c2=O)CC1 [ketanserin, 3-{2-[4-(4-fluorobenzoyl)piperidin-1-yl]ethyl}quinazoline-2,4(1H,3H)-dione]
- lipogenesis (optical density of Oil Red O extract) (Htr2a [1]): decreased lipogenesis; also recorded: reduced the optical density of the extract

Compound: Cc1nccn1CC1CCc2c(c3ccccc3n2C)C1=O (racemic) [ondansetron, (RS)-9-methyl-3-[(2-methyl-1H-imidazol-1-yl)methyl]-2,3-dihydro-1H-carbazol-4(9H)-one]
- cAMP level after β3AR stimulation (Htr3 [2]; IBAs pretreated with 1 uM ondansetron, in the presence of β3-adrenergic receptor agonist CL 316243): increased cAMP levels
- cAMP level in the absence of β3AR agonist (Htr3 [2]; IBAs, 1 uM ondansetron or 100 nM m-CPBG, 15 min): did not affect cAMP levels
- mRNA expression of thermogenic genes (Ucp1, Ppargc1a) (Htr3 [3]): increased
- phosphorylation of HSL and PKA substrate (PKA pathway components) after β3AR stimulation (Htr3 [4]): increased phosphorylation
- oxygen consumption rate (OCR) (Htr3 [5]): increased the OCR synergistically; also recorded: increased the oxygen consumption rate

Compound: NCCc1c[nH]c2ccc(O)cc12 [5-HT, 5-hydroxytryptamine]
- Ucp1 mRNA level [6]: abrogated; also recorded: suppressed
- glycerol release (lipolysis) (Htr2a [7]): suppressed lipolysis; also recorded: reduced the glycerol release

Compound: COc1cc(CC(C)N)c(OC)cc1I (stereo not shown) [DOI, 2,5-dimethoxy-4-iodoamphetamine]
- mRNA levels of lipogenic genes (Htr2a [8]): increased
- glycerol release (lipolysis) (Htr2a [7]): suppressed lipolysis; also recorded: reduced the glycerol release

Reference: patent publication US20160228452A1, “TREATMENT OF METABOLIC DISEASES BY INHIBTION OF HTR2A OR HTR3” (Korea Advanced Institute of Science and Technology, priority 2014, published 2016)
